Residues, ends and D or L forms follow the SMILES beside them. *: point of attachment. Cbz = O=C(OCc1ccccc1)*; CH2F = FC*
Columns and labels:
Type in all cases: cell-based, human
FLIP [1] = assay: Total FLIP protein (western blot)
Method: Western Blot Analysis. Total cell lysates were prepared using RIPA lysis buffer (Sigma) containing 150 mM sodium chloride, 1.0% Triton X-100, 0.5% sodium deoxycholate, 0.1% sodium dodecyl sulfate (SDS) and 50 mM Tris, pH 8.0 plus a 1× cocktail of protease inhibitors (Protease Inhibitor Cocktail Set I, Calbiochem). Cells were lysed for 30 minutes at 4° C. followed by centrifugation for 10 minutes at 10,000 rpm at 4° C. Protein concentrations were determined using BCA protein assay (Pierce). A 35 μg protein aliquot was mixed with 4× Laemmli's SDS sample buffer (0.02% Bromophenol Blue (BPB), 8% Beta-mercaptoethanol (BME), 8% SDS, 40% glycerol and 250 mM Tris-HCl, pH 6.8). Cell lysates were heated for five minutes at 100° C., resolved by 12% SDS-polyacrylamide gel electrophoresis (SDS-PAGE) and transferred to polyvinylidene fluoride (PVDF) membrane. The membrane was blocked with 5% non-fat milk or 5% BSA for ≥1 hour and incubated with primary antibodies for PARP and caspase 8 (Cell Signaling). After incubation, the membrane was incubated with secondary anti-rabbit or mouse horseradish peroxidase (HRP)-conjugated antibodies (Biorad). Proteins were visualized through development by enhanced chemiluminescence (ECL 2 Western Blotting Substrate, Pierce) and exposure on X-ray film. The blots were reprobed for β-actin to confirm equal protein loading.
(§1) Western Blot Analysis. Total cell lysates were analyzed for levels of PARP, caspase 8, caspase 3, Bid, caspase 9, caspase 6, caspase 7, FLIP, DR4 and DR5 and the cytosolic cellular fraction was analyzed for cytochrome C (Cell Signaling) using previously described western blotting techniques.

[2] = test system: rhTRAIL-resistant malignant melanomas; assay: Western blot of co-treatment with general caspase inhibitor Z-VAD-FMK; conditions: Z-VAD-FMK added to rhTRAIL plus quercetin
Method: (§2) Western Blot Analysis. Total cell lysates were prepared using RIPA lysis buffer (Sigma) containing 150 mM sodium chloride, 1.0% Triton X-100, 0.5% sodium deoxycholate, 0.1% sodium dodecyl sulfate (SDS) and 50 mM Tris, pH 8.0 plus a 1× cocktail of protease inhibitors (Protease Inhibitor Cocktail Set I, Calbiochem). Cells were lysed for 30 minutes at 4° C. followed by centrifugation for 10 minutes at 10,000 rpm at 4° C. Protein concentrations were determined using BCA protein assay (Pierce). A 35 μg protein aliquot was mixed with 4× Laemmli's SDS sample buffer (0.02% Bromophenol Blue (BPB), 8% Beta-mercaptoethanol (BME), 8% SDS, 40% glycerol and 250 mM Tris-HCl, pH 6.8). Cell lysates were heated for five minutes at 100° C., resolved by 12% SDS-polyacrylamide gel electrophoresis (SDS-PAGE) and transferred to polyvinylidene fluoride (PVDF) membrane. […]
as §1
Post treatment cells were collected and analyzed for induction of apoptosis through Annexin-V and PI staining and western blotting probing for key proteins in the apoptotic pathways (FIG. 4). […]

MeWo [3] = assay: Apoptosis assay (FITC-Annexin-V and PI staining, FACS); conditions: quercetin alone at 25 and 50 μM
Method: (§3) Cell Culture. Cells were incubated in a 90% humidified atmosphere with 5% CO2 at 37° C. Human adult primary epidermal melanocytes (ATCC PCS-200-013) were maintained in Dermal Cell Basal Medium supplemented with an Adult Melanocyte Growth kit (ATCC PCS-200-042) and 1% Antibiotic/Antimycotic Solution. The malignant melanoma cell lines, A375 (ATCC CRL-1619), WM9 and WM164 were maintained in DMEM and MeWo (ATCC HTB-65) was maintained in RPMI, both supplemented with 10% Fetal Bovine Serum (FBS) and 1% Antibiotic/Antimycotic Solution. WM9 and WM164 were a kind gift from Dr. Daniel J. Lindner from the Cleveland Clinic Foundation, Cleveland, Ohio Malignant melanoma lines are derived from patient tumors. A375 was derived from an epithelial skin biopsy. MeWo, WM9 and WM164 are metastatic malignant melanomas isolated from the lymph nodes.
(§4) Apoptosis Assay. Cells were trypsinized, harvested, washed twice with cold PBS and resuspended in 100 μl of Annexin-V binding buffer at a concentration of 1×10^3 cells/μl. According to manufacturer's protocol, cells were incubated with 5 μl of FITC-Annexin-V and propidium iodide (PI) for 15 minutes at room temperature in the dark (FITC-Annexin-V Kit Apoptosis Detection Kit I, BD Pharminogen). Stained cells were analyzed on BD FACS Canto II using Diva software. Single color controls (Annexin-V or PI only) were used to set up compensation and quadrants for FACS.
(§5) Melanoma rhTRAIL-Sensitivity: To test rhTRAIL-sensitivity, malignant melanoma lines were treated with and without 100 ng/ml of rhTRAIL for 72 hours. Prior to treatment, control experiments were done to determine the optimal conditions for rhTRAIL-treatment (data not shown). The treatment of 100 ng/ml for 72 hours was selected to best distinguish between rhTRAIL-sensitive and rhTRAIL-resistant melanomas. Post-treatment cells were analyzed for induction of apoptosis through FITC-Annexin-V and PI staining followed by FACS analysis (FIGS. 2A & 2B). […]

WM164 [4] = assay: as above
Method: as §3, §4, §5

MeWo [5] = assay: Western blot of apoptotic cascade (PARP, caspases, Bid, cytochrome c); conditions: quercetin alone at 25 and 50 μM
Method: as §2, with “6.8).” for “6.8). Cell lysates were heated for five minutes at 100° C., resolved by 12% SDS-polyacrylamide gel electrophoresis (SDS-PAGE) and transferred to polyvinylidene fluoride (PVDF) membrane.”
(§6) Melanoma rhTRAIL-Sensitivity: To test rhTRAIL-sensitivity, malignant melanoma lines were treated with and without 100 ng/ml of rhTRAIL for 72 hours. […] Post-treatment cells were analyzed for induction of apoptosis through FITC-Annexin-V and PI staining followed by FACS analysis (FIGS. 2A & 2B).
(§7) Western Blot Analysis. Total cell lysates were analyzed for levels of PARP, caspase 8, caspase 3, Bid, caspase 9, caspase 6, caspase 7, FLIP, DR4 and DR5 and the cytosolic cellular fraction was analyzed for cytochrome C (Cell Signaling) using previously described western blotting techniques. […]

WM164 [6] = assay: as above; conditions: WM164, quercetin alone at 25 and 50 μM
Method: as §2, with “6.8).” for “6.8). Cell lysates were heated for five minutes at 100° C., resolved by 12% SDS-polyacrylamide gel electrophoresis (SDS-PAGE) and transferred to polyvinylidene fluoride (PVDF) membrane.”
as §6, §7

DR4 [7] = assay: Death receptor membrane expression (anti-DR4-PE staining, FACS)
Method: (§8) Death Receptor Membrane Expression. Untreated and rhTRAIL-treated cells were collected with enzyme-free phosphate-buffered saline (PBS)-based cell dissociation buffer (Gibco Life Technologies) and stained with mouse anti-human DR4 or DR5 conjugated to phycoerythrin (PE) (eBioscience). Briefly, 0.25×10^6 cells were incubated in 100 μl of staining buffer (2% FBS and 0.02% sodium azide in PBS) and 5 μl anti-DR4 or anti-DR5 for one hour on ice in the dark. As a negative control to account for non-specific antibody binding, all four melanoma lines were stained with mouse IgG1κ, the same antibody isotype as DR4 and DR5, under the same conditions. After incubation, cells were washed twice with staining buffer and resuspended in 500 μl of staining buffer and analyzed on BD FACS Canto II using Diva software (BD Bioscience, San Jose, Calif.). Death Receptor Membrane Expression. The cell surface expression of DR4 and DR5 were determined according to previously described methods. For the permeabilization experiments, after the first antibody incubation cells were fixed in 4% paraformaldehyde for 10 minutes at room temperature and permeabilized with 0.1% saponin for 5 minutes at room temperature. Cells were then incubated with anti-IgG1κ, DR4 or DR5 for 30 minutes in the saponin buffer and analyzed by FACS. To calculate the cytoplasmic DR expression, […].

DR5 [8] = assay: Death receptor membrane expression (anti-DR5-PE staining, FACS)
Method: as §8

DR4 [9] = assay: Total DR4 protein (western blot)
Method: as §2, with “membrane. The membrane was blocked with 5% non-fat milk or 5% BSA for ≥1 hour and incubated with primary antibodies for PARP and caspase 8 (Cell Signaling).” for “membrane.”
as §1

DR4 [10] = assay: DR4 mRNA (reverse transcription-PCR)
Method: (§9) Reverse Transcription-PCR. Total RNA was extracted using TRIzol reagent (Ambion) and treated with DNase according to manufacturer's protocol (Invitrogen Deoxyribonuclease I, Amplification Grade). RT-PCR was performed following the manufacturer's protocol (Invitrogen SuperScript III One-Step RT-PCR System with Platinum® Taq DNA Polymerase). Human DR5 mRNA was amplified using the forward primer 5′-[…]-3′ and the reverse primer 5′-[…]-3′. For DR4, forward primer 5′-GAGCAACGCAGACTCGCT-3′ and the reverse primer 5′-TCACTCCAAGGACACGGC-3′ were used. For FLIP, forward primer 5′-[…]-3′ and the reverse primer 5′-[…]-3′ were used. For β-actin, the forward primer 5′-[…]-3′ and the reverse primer 5′-[…]-3′ were used. cDNA synthesis was performed at 60° C. for 30 minutes using the Applied Biosystems GeneAmp PCR System 9700. The PCR cycling conditions (30 cycles) were as follows: denature for 2 minutes at 94° C., anneal for 30 seconds at 55° C. for FLIP and DR4 and 65° C. for DR5 and β-actin, extend for 1 minute and 30 seconds at 68° C., and execute a final extension for 10 minutes at 68° C. Reaction products were analyzed on 1.2% agarose gels. The bands were visualized by ethidium bromide and an UV.

DR5 [11] = assay: Total DR5 protein (western blot)
Method: as §2, with “membrane. The membrane was blocked with 5% non-fat milk or 5% BSA for ≥1 hour and incubated with primary antibodies for PARP and caspase 8 (Cell Signaling).” for “membrane.”
as §1

DR5 [12] = assay: DR5 mRNA (reverse transcription-PCR)
Method: as §9

DR4 [13] = assay: Cytoplasmic DR4 expression (permeabilization, FACS)
Method: Death Receptor Membrane Expression. The cell surface expression of DR4 and DR5 were determined according to previously described methods. For the permeabilization experiments, after the first antibody incubation cells were fixed in 4% paraformaldehyde for 10 minutes at room temperature and permeabilized with 0.1% saponin for 5 minutes at room temperature. Cells were then incubated with anti-IgG1κ, DR4 or DR5 for 30 minutes in the saponin buffer and analyzed by FACS. To calculate the cytoplasmic DR expression, […].

FLIP [14] = assay: FLIP mRNA (reverse transcription-PCR)
Method: as §9

[15] = MeWo, post-treatment with quercetin
[16] = WM164, post-treatment with quercetin

For `CC(C)C[C@@H](C=O)NC(=O)[C@H](CC(C)C)NC(=O)[C@H](CC(C)C)NC(=O)OCc1ccccc1` [MG132, reference compound] (Cbz-Leu-Leu-Leu-aldehyde), which “effect of proteasome inhibitor on quercetin-mediated FLIP downregulation (total FLIP protein)” value (FLIP [1]; co-treatment with quercetin) is on record?
The value was “the downregulation of FLIP was prevented”.

For `COC(=O)C[C@H](NC(=O)[C@H](C)NC(=O)[C@@H](NC(=O)OCc1ccccc1)C(C)C)C(=O)CF` [Z-VAD-FMK] (Cbz-Val-Ala-Asp(OMe)-CH2F), which “effect on induction of apoptosis (PARP cleavage, caspase 3 activation) in the co-treatment group” value [2] is on record?
The value was “blocked the induction of apoptosis”.

`O=c1c(O)c(-c2ccc(O)c(O)c2)oc2cc(O)cc(O)c12` [quercetin] was tested. Which “induction of apoptosis compared to control” value (MeWo [3]) did it give?
The value was “no significant induction of apoptosis”.

And the apoptotic cells (WM164 [4]; WM164, quercetin alone at 25 μM)?
Its apoptotic cells is 10.5±0.7%.

And the apoptotic cells (WM164 [4]; WM164, quercetin alone at 50 μM)?
The apoptotic cells was 19.1±1.6%.

And the “PARP cleavage or activation of pro-apoptotic proteins” value (MeWo [5])?
The value was “no PARP cleavage or activation of any pro-apoptotic proteins”.

What about the “PARP cleavage or protein activation” value (WM164 [6]) of the same compound?
The value was “did not reveal any PARP cleavage or protein activation”.

What about the “DR4 membrane expression, fold increase relative to control” value (DR4 [7]; MeWo, quercetin 25 μM) of the same compound?
The value was “over four-fold”.

What about the “DR4 membrane expression, fold increase relative to control” value (DR4 [7]; MeWo, quercetin 50 μM) of the same compound?
Its value is “over 11 fold”.

What about the “DR4 membrane expression, fold increase relative to control” value (DR4 [7]; WM164, quercetin 25 μM) of the same compound?
The value was “nearly five-fold”.

What about the “DR4 membrane expression, fold increase relative to control” value (DR4 [7]; WM164, quercetin 50 μM) of the same compound?
The value was “seven-fold”.

And the “DR5 membrane expression upregulation” value (DR5 [8]; MeWo, quercetin 25 and 50 μM)?
Its value is “this did not occur”.

And the “DR5 membrane expression, fold increase relative to control” value (DR5 [8]; WM164, quercetin 25 μM)?
The value was “quarter-fold increase”.

And the “DR5 membrane expression, fold increase relative to control” value (DR5 [8]; WM164, quercetin 50 μM)?
Its value is “half-fold increase”.

And the “total DR4 protein expression” value (DR4 [9]; [15])?
Its value is “no change”.

And the “total DR4 protein expression” value (DR4 [9]; [16])?
Its value is “no change”.

What about the “DR4 mRNA message” value (DR4 [10]; [15]) of the same compound?
The value was “no change”.

And the “DR4 mRNA message” value (DR4 [10]; [16])?
Its value is “no change”.

What about the “total DR5 protein expression” value (DR5 [11]; [15]) of the same compound?
The value was “no change”.

And the “total DR5 protein” value (DR5 [11]; [16])?
Its value is “dose-dependent upregulation”.

What about the “DR5 mRNA” value (DR5 [12]; [15]) of the same compound?
Its value is “no change”.

What about the “DR5 mRNA” value (DR5 [12]; [16]) of the same compound?
The value was “dose-dependent upregulation”.

And the “cytoplasmic levels of DR4” value (DR4 [13]; MeWo, application of quercetin)?
Its value is “decreased”.

And the “cytoplasmic levels of DR4” value (DR4 [13]; WM164, application of quercetin)?
Its value is “decreased”.

And the “protein expression of FLIP” value (FLIP [1]; MeWo, quercetin)?
The value was “dose-dependently downregulate”.

What about the “protein expression of FLIP” value (FLIP [1]; WM164, quercetin) of the same compound?
Its value is “dose-dependently downregulate”.

And the “FLIP mRNA transcript signal” value (FLIP [14]; MeWo, quercetin)?
The value was “no change”.

And the “FLIP mRNA transcript signal” value (FLIP [14]; WM164, quercetin)?
The value was “no change”.

— patent publication US11360077B2, “Death receptors as markers for rhTRAIL-sensitivity” (Cleveland State University, priority 2017, dated 2022)
